Test results published in publication PMC11959756, “PepH3-modified nanocarriers for delivery of therapeutics across the blood-brain barrier” (Fluids and Barriers of the CNS, 2025).

What was measured:
[1] = cited from earlier work
Source text: There was a fast clearanc ...

[2] = test system: rat triple co-culture BBB model (RBEC, RPC, RAC); conditions: 10 nM, 30 min
[3] = test system: primary rat brain endothelial cells (RBEC); assay: Cellular uptake of PepH3 peptide in living RBECs (confocal microscopy, image analysis); type: cell-based; conditions: Quasar 570 labelled PepH3 100 nM, 37 °C, confocal image analysis normalized to nuclear intensity, n=10-25
Experimental: To visualize the cellular uptake of PepH3 peptide alone, the cells were cultured in Matrigel coated glass bottom culture dishes (diameter: 3.5 cm, Greiner Bio-One, Germany). Confluent monolayers were incubated with the peptide solution (100 nM) diluted in the culture medium of RBEC at 37 °C for 30 min, 5–24 h. For the staining of cell nuclei, Hoechst 33342 dye (1 µg/mL, 10 min) was used. After incubation the culture medium was removed and cells were washed with Ringer-HEPES buffer (118 mM NaCl, 4.8 mM KCl, 2.5 mM CaCl2, 1.2 mM MgSO4, 5.5 mM D-glucose, 20 mM HEPES, pH 7.4) supplemented with 1% PDS. For visualization of PepH3, living cells was imaged using Leica TCS SP5 confocal laser scanning microscope (Leica Microsystems, Germany).

[4] = test system: primary rat brain endothelial cells (RBEC); assay: Real-time impedance measurement of cellular toxicity on RBEC; type: cell-based; conditions: Quasar 570 labelled PepH3 1.875-120 µM, 24 h; impedance at 10 kHz; n=6-12
Experimental: Kinetics of the effect of PepH3 peptide, PepH3-tagged and non-tagged NPs on RBEC cells was monitored by impedance measurement at 10 kHz (RTCA-SP instrument; ACEA Biosciences, USA). Impedance measurement is a label-free, real time, non- invasive method, and correlates linearly with adherence, growth, number, and viability of cells. For background measurements 50 µL cell culture medium was added to the wells, then cells were seeded at a density of 6 × 10^3 cells/well to collagen type IV (100 µg/mL) and fibronectin (25 µg/mL) coated 96-well plates with integrated gold electrodes (E-plate 96, ACEA Biosciences, USA). Cells were cultured for 4 days and monitored every 5 min until the end of experiments. At the beginning of plateau phase of growth, cells were treated with PepH3 (1.875-120 µM) and PepH3-tagged and non-tagged NPs (0.1-3.0 mg/mL) for 24 h. Cell index was defined as Rn-Rb at each time point of measurement, where Rn is the cell-electrode impedance of the well when it contains cells and Rb is the background impedance of the well with the medium alone.

For “Q-AGILKRW-NH2 [PepH3, cationic 7-residue peptide (AGILKRW), BBB peptide shuttle derived from Dengue virus type-2 capsid protein; tested Quasar 570 labelled]”, the “Accumulation in liver, lung and kidney in vivo” value ([1]; biodistribution profile compared to FC5) is given as “low accumulation”, the “Brain uptake in vivo” value ([1]; radiolabeled PepH3 peptide derivatives, biodistribution) is given as “high brain uptake” and the “Papp of PepH3 relative to transcellular BBB marker albumin (EBA)” value [2] is given as 71 times. For the same substance, the “Peptide internalization after 5 h compared to the 30 min group” value [3] was 1.9 fold, the “Peptide internalization after 24 h compared to the 30 min group” value [3] was 6 fold and the “Effect on impedance (viability) of RBEC cell layers” value [4] was “good cell viability”.
